Data reported in patent US20220257698A1, “ANGIOTENSIN TYPE 2 (AT2) RECEPTOR AGONISTS FOR USE IN THE TREATMENT OF CANCER” (LANTHIOPEP B.V., priority 2019, published 2022).

Tested on: colon carcinoma PDX model Co9689A
Assay: KcAng(1-7) on growth of colon carcinoma PDX Co9689A in mice
Format: in vivo, NMRI nu/nu mice (human PDX)
Conditions: for T/C (treated tumor volume as percent of vehicle control): day 28 (day 41 of study)
Description: In vivo studies were conducted at EPO GmbH Berlin. Large studies (FIG. 1A, 2, 3, 4, 5) comprised 3 groups of 10 mice/group and 5 animals as reserve, as outlined in Table 1. Smaller studies (FIG. 1B, 1C, 1D) comprised 2 groups of mice of 3 mice per group. The animals were allocated to the various treatment groups (e.g. 0.2 μg/kg and 30 μg/kg) with a maximum of 10 animals per group. […] The groups received subcutaneous (s.c.) drug injection (for max. 28 days) as outlined in the Table 1.
NMRI nu/nu mice were used in this study. The animals were female at age of 6 to 8 weeks. The respective PDX tumors were inoculated subcutaneously (s.c.), and the tumors were grown to achieve palpable tumor sizes before start of the respective treatments. The PDX included breast (MaCa4151), colon (Co9689A), head & neck (HN10309), lung (Lu7433) and ovarian (OvCa13329) cancer (Table 2).
Treatment with KcAng(1-7) was started with palpable tumors after the randomization of animals regarding tumor volume. KcAng(1-7) was applied s.c. by daily injections at […] or 30 μg/kg dose for a maximum of 28 days (or earlier as defined by the humane end point for the study).
KcAng(1-7) was prepared as follows: The compounds was suspended in sterile PBS resulting in a clear solution. The remains of this formulation were stored at 4° C.
Tumor growth stimulatory or inhibitory activity of the KcAng(1-7) was evaluated by determination of tumor volumes (TV). During the study, tumor volumes and body weight were measured twice a week, and the ratio of the mean tumor volumes between the compound-treated group and the vehicle-treated group (T/C) was calculated.
Tumor volume=(tumor width)×(tumor width)×(tumor length)+2
T/C=T÷C • T: Mean estimated tumor volume of the compound-treated group • C: Mean estimated tumor volume of the vehicle-treated group

[1] = Gr. B 0.2 μg/kg/d s.c., Meas. 1
[2] = Gr. B 0.2 μg/kg/d s.c., Meas. 2
[3] = Gr. B 0.2 μg/kg/d s.c., Meas. 3
[4] = Gr. B 0.2 μg/kg/d s.c., Meas. 4
[5] = Gr. B 0.2 μg/kg/d s.c., Meas. 5
[6] = Gr. B 0.2 μg/kg/d s.c., Meas. 6
[7] = Gr. B 0.2 μg/kg/d s.c., Meas. 7
[8] = Gr. B 0.2 μg/kg/d s.c., Meas. 8
[9] = Gr. B 0.2 μg/kg/d s.c., Meas. 9 (day 28, day 41 of study)
[10] = Gr. C 30 μg/kg/d s.c., Meas. 9 (day 28, day 41 of study)

“Lys-Asp-Arg-Val-Abu/Ala-Ile-His-Abu/Ala (KDRVAIHA; not fully specified; cyclic thioether (Abu/Ala bridge); VARIANT (5)..(5) /replace=“Abu”; VARIANT (8)..(8) /replace=“Abu”; SITE (1)..(8) /note=“Variant residues given in the sequence have no preference with respect to those in the annotations for variant positions”) [KcAng(1-7)]” was tested, and the “T/C (treated tumor volume as percent of vehicle control)” value (0.2 μg/kg) was 58%, the “T/C (treated tumor volume as percent of vehicle control)” value (30 μg/kg) was 45% and the “effect on tumor growth” value (0.2 and 30 μg/kg, 28 days) was “statistically significant and dose dependent reduction in tumor growth”. The “RTV Mean” value [1] was 1, the “RTV Median” value [1] was 1 and the T/C [1] was 99.5%. The “Tumor Vol. Mean” value [1] was 0.093 cm^3, the “Tumor Vol. Median” value [1] was 0.09 cm^3 and the “RTV Mean” value [2] was 1.2. For the same substance, the “RTV Median” value [2] was 1.2, the T/C [2] was 90.3% and the “Tumor Vol. Mean” value [2] was 0.107 cm^3. The “Tumor Vol. Median” value [2] was 0.108 cm^3, the “RTV Mean” value [3] was 1.4 and the “RTV Median” value [3] was 1.4. For the same substance, the T/C [3] was 87.4%, the “Tumor Vol. Mean” value [3] was 0.132 cm^3 and the “Tumor Vol. Median” value [3] was 0.126 cm^3. The “RTV Mean” value [4] was 2, the “RTV Median” value [4] was 1.9 and the T/C [4] was 87.1%. The “Tumor Vol. Mean” value [4] was 0.188 cm^3, the “Tumor Vol. Median” value [4] was 0.139 cm^3 and the “RTV Mean” value [5] was 2.7. The “RTV Median” value [5] was 2.6, the T/C [5] was 84.6% and the “Tumor Vol. Mean” value [5] was 0.252 cm^3. For the same substance, the “Tumor Vol. Median” value [5] was 0.234 cm^3, the “RTV Mean” value [6] was 2.8 and the “RTV Median” value [6] was 2.7. For the same substance, the T/C [6] was 80.7%, the “Tumor Vol. Mean” value [6] was 0.267 cm^3 and the “Tumor Vol. Median” value [6] was 0.238 cm^3. For the same substance, the “RTV Mean” value [7] was 3.2, the “RTV Median” value [7] was 2.8 and the T/C [7] was 71.6%. The “Tumor Vol. Mean” value [7] was 0.272 cm^3, the “Tumor Vol. Median” value [7] was 0.214 cm^3 and the “RTV Mean” value [8] was 2. For the same substance, the “RTV Median” value [8] was 1.9, the T/C [8] was 58.6% and the “Tumor Vol. Mean” value [8] was 0.192 cm^3. The “Tumor Vol. Median” value [8] was 0.178 cm^3, the “RTV Mean” value [9] was 2.7 and the “RTV Median” value [9] was 2.5. The T/C [9] was 58.1%, the “Tumor Vol. Mean” value [9] was 0.257 cm^3 and the “Tumor Vol. Median” value [9] was 0.219 cm^3. The “RTV Mean” value (Gr. C 30 μg/kg/d s.c., Meas. 1) was 1, the “RTV Median” value (Gr. C 30 μg/kg/d s.c., Meas. 1) was 1 and the T/C (Gr. C 30 μg/kg/d s.c., Meas. 1) was 99.5%. For the same substance, the “Tumor Vol. Mean” value (Gr. C 30 μg/kg/d s.c., Meas. 1) was 0.093 cm^3, the “Tumor Vol. Median” value (Gr. C 30 μg/kg/d s.c., Meas. 1) was 0.097 cm^3 and the “RTV Mean” value (Gr. C 30 μg/kg/d s.c., Meas. 2) was 1.2. The “RTV Median” value (Gr. C 30 μg/kg/d s.c., Meas. 2) was 1.2, the T/C (Gr. C 30 μg/kg/d s.c., Meas. 2) was 91.5% and the “Tumor Vol. Mean” value (Gr. C 30 μg/kg/d s.c., Meas. 2) was 0.108 cm^3. For the same substance, the “Tumor Vol. Median” value (Gr. C 30 μg/kg/d s.c., Meas. 2) was 0.105 cm^3, the “RTV Mean” value (Gr. C 30 μg/kg/d s.c., Meas. 3) was 1.3 and the “RTV Median” value (Gr. C 30 μg/kg/d s.c., Meas. 3) was 1.3. For the same substance, the T/C (Gr. C 30 μg/kg/d s.c., Meas. 3) was 80.9%, the “Tumor Vol. Mean” value (Gr. C 30 μg/kg/d s.c., Meas. 3) was 0.122 cm^3 and the “Tumor Vol. Median” value (Gr. C 30 μg/kg/d s.c., Meas. 3) was 0.111 cm^3. The “RTV Mean” value (Gr. C 30 μg/kg/d s.c., Meas. 4) was 1.7, the “RTV Median” value (Gr. C 30 μg/kg/d s.c., Meas. 4) was 1.5 and the T/C (Gr. C 30 μg/kg/d s.c., Meas. 4) was 72.1%. The “Tumor Vol. Mean” value (Gr. C 30 μg/kg/d s.c., Meas. 4) was 0.156 cm^3, the “Tumor Vol. Median” value (Gr. C 30 μg/kg/d s.c., Meas. 4) was 0.125 cm^3 and the “RTV Mean” value (Gr. C 30 μg/kg/d s.c., Meas. 5) was 2.2. For the same substance, the “RTV Median” value (Gr. C 30 μg/kg/d s.c., Meas. 5) was 2.3, the T/C (Gr. C 30 μg/kg/d s.c., Meas. 5) was 68.6% and the “Tumor Vol. Mean” value (Gr. C 30 μg/kg/d s.c., Meas. 5) was 0.205 cm^3. For the same substance, the “Tumor Vol. Median” value (Gr. C 30 μg/kg/d s.c., Meas. 5) was 0.184 cm^3, the “RTV Mean” value (Gr. C 30 μg/kg/d s.c., Meas. 6) was 2.5 and the “RTV Median” value (Gr. C 30 μg/kg/d s.c., Meas. 6) was 2.4. For the same substance, the T/C (Gr. C 30 μg/kg/d s.c., Meas. 6) was 72.5%, the “Tumor Vol. Mean” value (Gr. C 30 μg/kg/d s.c., Meas. 6) was 0.24 cm^3 and the “Tumor Vol. Median” value (Gr. C 30 μg/kg/d s.c., Meas. 6) was 0.199 cm^3. For the same substance, the “RTV Mean” value (Gr. C 30 μg/kg/d s.c., Meas. 7) was 3, the “RTV Median” value (Gr. C 30 μg/kg/d s.c., Meas. 7) was 2.8 and the T/C (Gr. C 30 μg/kg/d s.c., Meas. 7) was 75.6%. For the same substance, the “Tumor Vol. Mean” value (Gr. C 30 μg/kg/d s.c., Meas. 7) was 0.287 cm^3, the “Tumor Vol. Median” value (Gr. C 30 μg/kg/d s.c., Meas. 7) was 0.213 cm^3 and the “RTV Mean” value (Gr. C 30 μg/kg/d s.c., Meas. 8) was 2.2. The “RTV Median” value (Gr. C 30 μg/kg/d s.c., Meas. 8) was 1.9, the T/C (Gr. C 30 μg/kg/d s.c., Meas. 8) was 63.3% and the “Tumor Vol. Mean” value (Gr. C 30 μg/kg/d s.c., Meas. 8) was 0.208 cm^3. For the same substance, the “Tumor Vol. Median” value (Gr. C 30 μg/kg/d s.c., Meas. 8) was 0.155 cm^3, the “RTV Mean” value [10] was 2.1 and the “RTV Median” value [10] was 1.8. The T/C [10] was 45.3%, the “Tumor Vol. Mean” value [10] was 0.201 cm^3 and the “Tumor Vol. Median” value [10] was 0.134 cm^3. The retarded tumor growth (colon carcinoma PDX upon treatment as in Example 1) was about 40%.
